Laboratory results published in the NIST ThermoML archive (doi:10.1021/je700322p).
Numbers after ± are expanded uncertainties.

Conditions: Liquid

CCOC(C)=O [ethyl acetate]
vapor or sublimation pressure (310 K): 21.72 ± 0.17 kPa
vapor or sublimation pressure (313 K): 24.78 ± 0.17 kPa
vapor or sublimation pressure (316 K): 28.18 ± 0.18 kPa
vapor or sublimation pressure (319 K): 31.95 ± 0.18 kPa
vapor or sublimation pressure (322 K): 36.12 ± 0.19 kPa
vapor or sublimation pressure (325 K): 40.73 ± 0.19 kPa
vapor or sublimation pressure (328 K): 45.8 ± 0.2 kPa
vapor or sublimation pressure (331 K): 51.36 ± 0.2 kPa
vapor or sublimation pressure (334 K): 57.46 ± 0.21 kPa
vapor or sublimation pressure (337 K): 64.13 ± 0.22 kPa
vapor or sublimation pressure (340 K): 71.4 ± 0.23 kPa
vapor or sublimation pressure (343 K): 79.32 ± 0.24 kPa
vapor or sublimation pressure (346 K): 87.93 ± 0.25 kPa
vapor or sublimation pressure (349 K): 97.26 ± 0.26 kPa
vapor or sublimation pressure (352 K): 107.36 ± 0.27 kPa
vapor or sublimation pressure (355 K): 118.27 ± 0.29 kPa
vapor or sublimation pressure (358 K): 130.03 ± 0.3 kPa
vapor or sublimation pressure (359 K): 134.15 ± 0.31 kPa

CCO [ethanol]
vapor or sublimation pressure (321 K): 26.41 ± 0.18 kPa
vapor or sublimation pressure (324 K): 30.53 ± 0.18 kPa
vapor or sublimation pressure (327 K): 35.19 ± 0.19 kPa
vapor or sublimation pressure (330 K): 40.44 ± 0.19 kPa
vapor or sublimation pressure (333 K): 46.34 ± 0.2 kPa
vapor or sublimation pressure (336 K): 52.96 ± 0.21 kPa
vapor or sublimation pressure (339 K): 60.35 ± 0.21 kPa
vapor or sublimation pressure (342 K): 68.6 ± 0.22 kPa
vapor or sublimation pressure (345 K): 77.77 ± 0.23 kPa
vapor or sublimation pressure (348 K): 87.96 ± 0.25 kPa
vapor or sublimation pressure (351 K): 99.24 ± 0.26 kPa
vapor or sublimation pressure (354 K): 111.7 ± 0.28 kPa
vapor or sublimation pressure (357 K): 125.44 ± 0.3 kPa
vapor or sublimation pressure (359 K): 135.37 ± 0.31 kPa
